Measurements: patent US8227240B2, “Systems for screening pharmaceutical chemicals” (The Washington University, priority 2001, dated 2012)

Assays:
cardiac fibroblasts = test: Mechanical tests of tissue model rings cultured with MMP inhibitor; assay type: cell-based; conditions: 50 μM GM6001 for 6 days
Experimental: The tissue models made using cardiac fibroblasts are incubated with 50 .μM GM6001 for 6 days. The tissue culture medium is replenished every other day with fresh medium containing GM6001. The tissue model rings were subjected to mechanical tests as described above.

animals = conditions: in vivo; cited from earlier work
MMPs = conditions: purified system; cited from earlier work

CNC(=O)[C@H](Cc1c[nH]c2ccccc12)NC(=O)[C@@H](CC(=O)NO)CC(C)C [GM6001, N-[(2R)-2-(Hydroxamid-ocarbonylmethyl)-4-methylpentanoyl]-L-tryptophan methylamide]
mechanical properties of tissue model rings compared to controls (cardiac fibroblasts): significant reduction
concentration of inhibitor at which effects in animals can be observed (animals): sub mmol/l
Ki values for different MMPs (MMPs): around nmol/l
